One data set deals with Liver Cancer (HepG-2). The class given is cell-based, human. The following applies: 48 h. The procedure: (§1) The antiproliferative activity of the peptides was evaluated, as previously described using human cancer cell lines (A549 (lung), A2780 (ovary), HepG-2 (liver), MCF-7 (breast), MiaPaCa-2 (pancreas), MNT-1 (skin), and PC-3 (prostate)) and normal human lung fibroblasts (IMR-90) or epithelial cells (BEAS-2B). The cells were cultured in DMEM supplemented with 10% FBS, 1% L-glutamine, and 1% antibiotics at 37 °C in a 5% CO2 incubator. For the antiproliferative assay, cells were seeded in 96-well plates at approximately 3000 cells/well. Twenty-four hours later, cells were treated with increasing concentrations of peptides (1:2 serial dilution from 100 µM to 0 µM) for 48 h. After treatment, the number of viable cells was determined using a resazurin-based assay, and the fluorescence intensity was measured with a microplate reader (Ex 530 nm/Em 590 nm). The IC50 values of the peptides (i.e., the concentrations causing 50% inhibition of cell proliferation) were determined using GraphPad® Prism 7 software. The experiments were performed in triplicate (n = 3). The cytotoxicity of the peptides was also evaluated using confluent/no-dividing cells, as previously described. Briefly, human cells were seeded onto 96-well plates at 20,000 cells/well. When they reached 80–90% confluence (after 24–48 h), cells were treated with escalating concentrations of peptides. After 48h incubation, cell viability was measured using a resazurin assay and CC50 (i.e., the concentrations causing 50% inhibition of cell viability) and determined using GraphPad® Prism 7 software. The experiments were performed in triplicate (n = 3).

For a further data set, the system named is Lung Cancer (A549). The class given is cell-based, human. The following applies: 48 h. The protocol:
as §1

Data set [1] concerns Normal Lung Fibroblast (IMR-90). Type of data set: cell-based, human. The following applies: 48 h. The protocol:
as §1

In data set [2] the test system is Pancreatic Cancer (MiaPaCa-2). The class given is cell-based, human. The following applies: 48 h. The protocol:
as §1

The subject of the next data set is Prostate Cancer (PC-3). The class given is cell-based, human. The following applies: 48 h. The procedure:
as §1

A further data set has as its system Ovarian Cancer (A2780). Type of data set: cell-based, human. The following applies: 48 h. The procedure: as §1
The next data set relates to Breast Cancer (MCF-7). The class given is cell-based, human. The following applies: 48 h. The procedure:
as §1

The subject of another data set is Skin Cancer (MNT-1). The class given is cell-based, human. The following applies: 48 h. The protocol: as §1
Another data set concerns E. faecium (DSM 20477). The following applies: E. faecium, from MIC. The procedure:
(§2) The peptides were assessed for their antibacterial activity by determining the minimum inhibitory concentration (MIC) using the two-fold serial dilution method following the National Committee of Clinical Laboratory Standards, as previously described. Gram-negative (Acinetobacter baumannii (DSM 30007), Escherichia coli (ATCC 8739), Enterobacter cloacae (DSM 30054), Helicobacter pylori (ATCC 43504), Klebsiella pneumoniae (DSM 26371), Pseudomonas aeruginosa (ATCC 9027)) and Gram-positive bacteria (Bacillus subtilis (ATCC 6633), Enterococcus faecalis (DSM 2570), Enterococcus faecium (DSM 20477), Staphylococcus aureus (ATCC 6538)) were used for the antibacterial activity assays. In brief, 3 mL of Mueller–Hinton (MH) broth was inoculated with single clusters of the various bacterial strains and incubated overnight at 37 °C with agitation at 200 rpm. The next day, the bacterial solution was diluted with sterile MH by 1/100 and further incubated at 37 °C and 200 rpm until the bacteria reached the log phase growth (OD600nm around 0.6). The bacterial suspension was then adjusted to a density of approximately 10^5 bacteria/mL, and 100 μL was added per well of 96-well microplates (Greiner BioOne, Les Ulis, France), followed by exposure to increasing concentrations of peptides (from 0 to 100 µM, 1:2 dilution). Plates were then incubated at 37 °C for 18-24 h under either aerobic (for A. baumannii, E. cloacae, E. coli, P. aeruginosa, B. subtilis, and S. aureus) or micro-aerobic conditions generated using GasPak units (for E. faecalis, E. faecium and, H. pylori). […] The optical density (OD) at 600nm was measured using a microplate reader (Biotek, Synergy Mx, Les Ulis, France) after the final incubation. All experiments were performed in triplicate (n = 3).

The test system of the next data set is E. cloacae (DSM 30054). The procedure: as §2
The test system of data set [3] is P. aeruginosa (ATCC 9027). The following applies: P. aeruginosa, from MIC. The protocol:
as §2

A further data set has as its system E. faecalis (DSM 2570). The procedure: as §2
For another data set, the system named is E. coli (ATCC 8739). The following applies: E. coli, from MIC. The procedure: as §2
For the next data set, the system named is A. baumannii (DSM 30007). The following applies: A. baumannii, from MIC. The procedure:
as §2

The subject of another data set is K. pneumonia (DSM 26371). The following applies: K. pneumonia, from MIC. The protocol:
as §2

Data set [4] can be described thus: Circular dichroism, secondary structure (Bestsel). The class given is physicochemical. The following applies: CD in 20 mM SDS. The protocol: Circular dichroism of temporin SHa, [G10a]-SHa and newly synthesised second-generation analogs of [G10a]-SHa in 20 mM SDS are shown in Figure 2. In lipidic environments mimicked by SDS, peptides adopt an alpha helical structure due to their amphipathic nature. This structural feature is important for their antimicrobial activity, allowing for their insertion into bacterial membranes. The hydrophobic region of the peptide interacts with the hydrophobic portion of the lipid while the hydrophilic region remains exposed to the aqueous environment. The percentage of alpha helix, as well as the percentage of other secondary structures, was determined from CD data using Bestsel software (https://bestsel.elte.hu/index.php, (accessed on 22 June 2024)) (Table 3). Temporin-SHa (1) adopted a 49.5% α-helical structure, while its first-generation analog [G10a]-SHa (2) acquired a 82.4% alpha helical structure. The 84.6%, 88.7%, 4.7%, and 53.8% alpha helical structures were acquired for second-generation analogs 3, 4, 5, and 6, respectively.
The far-ultraviolet CD spectra were obtained using a JASCO J-810 spectropolarimeter (Jasco, Tokyo, Japan). In addition to this, the quartz cuvette of 10 mm path length was used. The temperature was maintained at 22 °C, and the output of the instrument was calibrated using D-(+)-10-camphorsulfonic acid. The peptides, which were present at a concentration of 1.0 mg/mL, were dissolved completely in 20 mM SDS at a concentration of 15 µM [21]. The instrument was set to record wavelengths ranging from 190 to 260 nm with a bandwidth of 2 nm. Ten consecutive scans (accumulations) were recorded for each spectrum at a rate of 50 nm/min, and the baseline was acquired under the same conditions.
(CD spectra are sensitive to the conformation of chiral molecules.)

Data set [5] deals with Normal Lung Epithelium (BEAS-2B). The class given is cell-based, human. The following applies: 48 h. The procedure: as §1

SMILES strings stand for the structures. Where a SMILES comes first, the peptide text is derived from it. [ ]: non-standard residue; d: D form.

As usually defined, the IC50 is the concentration needed to halve the response being measured.

Regarding `CC[C@H](C)[C@H](NC(=O)CNC(=O)[C@H](CO)NC(=O)[C@H](CC(C)C)NC(=O)[C@@H](N)Cc1ccccc1)C(=O)N[C@H](C(=O)NCC(=O)N[C@@H](CCSC)C(=O)N[C@@H](CC(C)C)C(=O)N[C@@H](CCCCN)C(=O)N[C@@H](CCCCN)C(=O)N[C@@H](CC(C)C)C(=O)N[C@@H](Cc1ccccc1)C(N)=O)C(C)C` [[G10K]-SHa (4), H-Phe^1-Leu^2-Ser^3-Gly^4-IIe^5-Val^6-Gly^7-Met^8-Leu^9-L-Lys^10-Lys^11-Leu^12-Phe^13-NH2] (H-FLSGIVGMLKKLF-NH2), the IC50 in the data set on Liver Cancer (HepG-2) is 64.3 ± 3.5 µM; with Lung Cancer (A549) it was 32.6 ± 2.4 µM; in [1], more than 100 µM; in data set [2], 61.4 ± 4.1 µM; in the data set with Prostate Cancer (PC-3) it was 11.7 ± 1.2 µM; with Ovarian Cancer (A2780), 21.8 ± 3.2 µM. The IC50 came to 37.4 ± 11.8 µM with Breast Cancer (MCF-7) and 21.7 ± 6.9 µM in the data set on Skin Cancer (MNT-1). In addition, the “fold activity compared to [G10a]-SHa (2)” value with E. faecium (DSM 20477) is “at least 16”; in the data set on E. cloacae (DSM 30054) (E. cloacae, from MIC), “about eight times more active”; in data set [3] it was “at least four times more active”; in the data set with E. coli (ATCC 8739), “at least four times more active”; in the data set with A. baumannii (DSM 30007) it was “at least four times more active”; in the data set with K. pneumonia (DSM 26371), “at least four times more active”. For the same compound, the “fold increase in activity relative to the parent peptide (1)” value is listed as 4 in the data set with E. cloacae (DSM 30054) (Enterobacter cloacae DSM 30054, from MIC) and 4 with E. faecalis (DSM 2570) (Enterococcus faecalis DSM 2570, from MIC). In addition, in data set [4], the Antiparallel is 11.30%. The “Helix (alpha helical structure)” value in data set [4] was determined as 88.70%; in data set [4] (listed as 4) it was 88.7%. For the same compound, in [4], the Others is reported as 0.00%. This compound yielded a Parallel in data set [4] of 0.00%. Further, the Turn in data set [4] amounted to 0.00%.

Turning to `CC[C@H](C)[C@H](NC(=O)CNC(=O)[C@H](CO)NC(=O)[C@H](CC(C)C)NC(=O)[C@@H](N)Cc1ccccc1)C(=O)N[C@H](C(=O)NCC(=O)N[C@@H](CCSC)C(=O)N[C@@H](CC(C)C)C(=O)N[C@H](Cc1ccccc1)C(=O)N[C@@H](CCCCN)C(=O)N[C@@H](CC(C)C)C(=O)N[C@@H](Cc1ccccc1)C(N)=O)C(C)C` [[G10f]-SHa (3), H-Phe^1-Leu^2-Ser^3-Gly^4-IIe^5-Val^6-Gly^7-Met^8-Leu^9-D-Phe^10-Lys^11-Leu^12-Phe^13-NH2] (H-FLSGIVGML[dF]KLF-NH2), the IC50 with Liver Cancer (HepG-2) was 19.8 ± 1.7 µM; with Lung Cancer (A549) it was 3.6 ± 0.7 µM; in [1], 14.2 ± 0.6 µM; in [2] it was 6.8 ± 0.4 µM; in the data set on Prostate Cancer (PC-3), 4.9 ± 0.3 µM; in the data set on Ovarian Cancer (A2780) it was 6.6 ± 0.5 µM. Also, the IC50 in [5] came to 7.8 ± 0.3 µM; with Breast Cancer (MCF-7), 4.4 ± 1.3 µM; with Skin Cancer (MNT-1), 5.5 ± 0.4 µM. Moreover, the “fold activity compared to [G10a]-SHa (2)” value with E. faecium (DSM 20477) was determined as 32. Further, the Antiparallel in [4] is recorded as 15.40%. Moreover, the “Helix (alpha helical structure)” value in data set [4] was 84.60%; in data set [4] (listed as 3) it was 84.6%. Moreover, the Others in data set [4] is on record as 0.00%. The same compound had a Parallel in data set [4] of 0.00%. Further, in data set [4], the Turn stood at 0.00%.

Consider `CC[C@H](C)[C@H](NC(=O)CNC(=O)[C@H](CO)NC(=O)[C@H](CC(C)C)NC(=O)[C@@H](N)Cc1ccccc1)C(=O)N[C@H](C(=O)NCC(=O)N[C@@H](CCSC)C(=O)N[C@@H](CC(C)C)C(=O)N[C@H](Cc1ccc(O)cc1)C(=O)N[C@@H](CCCCN)C(=O)N[C@@H](CC(C)C)C(=O)N[C@@H](Cc1ccccc1)C(N)=O)C(C)C` [[G10y]-SHa (6), H-Phe^1-Leu^2-Ser^3-Gly^4-IIe^5-Val^6-Gly^7-Met^8-Leu^9-D-Tyr^10-Lys^11-Leu^12-Phe^13-NH2] (H-FLSGIVGML[dY]KLF-NH2), for which the IC50 was 40.3 ± 7.2 µM in the data set with Liver Cancer (HepG-2); 23.9 ± 3.9 µM in data set [2]; 19.3 ± 1.2 µM in the data set on Prostate Cancer (PC-3); 23.2 ± 3.1 µM in the data set with Ovarian Cancer (A2780); 13.1 ± 3.6 µM in the data set with Breast Cancer (MCF-7); 44.1 ± 8.1 µM with Skin Cancer (MNT-1). Further, the “fold activity compared to [G10a]-SHa (2)” value in the data set on E. faecium (DSM 20477) was “at least eight times more activity”; in the data set on E. faecalis (DSM 2570) (E. faecalis, from MIC), “twice the activity”. In addition, in data set [4], the Antiparallel is reported as 15.10%. Moreover, the entries for the “Helix (alpha helical structure)” value in data set [4] and in [4] (listed as 6) were 53.80% and 53.8%, respectively. The Others in data set [4] came out at 0.00%. This compound registered a Parallel in data set [4] of 31.10%. Besides, in data set [4], the Turn amounted to 0.00%.

Source of the values: article PMC11350846, “Synthesis of Second-Generation Analogs of Temporin-SHa Peptide Having Broad-Spectrum Antibacterial and Anticancer Effects” (Antibiotics, 2024).
